Reference: PubChem BioAssay (NCI)
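Cells were grown in 96-well plates and exposed to each compound for 48 hours at five concentrations; endpoints were interpolated linearly between bracketing concentrations, or set to the highest concentration if not reached. GI50 is the concentration that inhibits growth by half. At the TGI there is no net growth.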

Columns and labels:
Assay in all cases: inhibition of tumour cell growth, NCI panel, 48 h
NCI-H460 lung = system: NCI-H460 lung
PC-3 prostate = system: PC-3 prostate
SW-620 colon = system: SW-620 colon
SF-539 CNS = system: SF-539 CNS
T-47D breast = system: T-47D breast
KM12 colon = system: KM12 colon
SK-MEL-28 melanoma = system: SK-MEL-28 melanoma
MOLT-4 leukemia = system: MOLT-4 leukemia
CAKI-1 renal = system: CAKI-1 renal
COLO 205 colon = system: COLO 205 colon
UACC-62 melanoma = system: UACC-62 melanoma
HT29 colon = system: HT29 colon
786-0 renal = system: 786-0 renal
NCI-H226 lung = system: NCI-H226 lung
K-562 leukemia = system: K-562 leukemia
A498 renal = system: A498 renal
SF-268 CNS = system: SF-268 CNS
SR leukemia = system: SR leukemia
OVCAR-8 ovarian = system: OVCAR-8 ovarian
HOP-92 NSCLC = system: HOP-92 NSCLC
OVCAR-5 ovarian = system: OVCAR-5 ovarian
MDA-MB-468 breast = system: MDA-MB-468 breast
HCT-15 colon = system: HCT-15 colon
OVCAR-4 ovarian = system: OVCAR-4 ovarian
BT-549 breast = system: BT-549 breast
UO-31 renal = system: UO-31 renal
CCRF-CEM leukemia = system: CCRF-CEM leukemia
SNB-75 CNS = system: SNB-75 CNS
DU-145 prostate = system: DU-145 prostate
HS 578T breast = system: HS 578T breast
NCI-H522 lung = system: NCI-H522 lung
HOP-62 NSCLC = system: HOP-62 NSCLC
RXF 393 renal = system: RXF 393 renal
SK-OV-3 ovarian = system: SK-OV-3 ovarian
TK-10 renal = system: TK-10 renal
U251 CNS = system: U251 CNS
NCI-H23 lung = system: NCI-H23 lung
OVCAR-3 ovarian = system: OVCAR-3 ovarian
MDA-MB-435 = system: MDA-MB-435
SF-295 CNS = system: SF-295 CNS
MCF7 breast = system: MCF7 breast
HL-60(TB) leukemia = system: HL-60(TB) leukemia
MALME-3M melanoma = system: MALME-3M melanoma
IGROV1 ovarian = system: IGROV1 ovarian
LOX IMVI melanoma = system: LOX IMVI melanoma
SNB-19 CNS = system: SNB-19 CNS
NCI/ADR-RES ovarian = system: NCI/ADR-RES ovarian
HCT-116 colon = system: HCT-116 colon
MDA-MB-231 breast = system: MDA-MB-231 breast
SK-MEL-5 melanoma = system: SK-MEL-5 melanoma
ACHN renal = system: ACHN renal
EKVX NSCLC = system: EKVX NSCLC
M14 melanoma = system: M14 melanoma
SK-MEL-2 melanoma = system: SK-MEL-2 melanoma
HCC-2998 colon = system: HCC-2998 colon
SN12C renal = system: SN12C renal
UACC-257 melanoma = system: UACC-257 melanoma
RPMI-8226 leukemia = system: RPMI-8226 leukemia
A549 NSCLC = system: A549 NSCLC

Molecule FC(F)(F)c1cc2c(Cl)ncnc2n1CCC1CCOCC1 has a GI50 (NCI-H460 lung) of 2.42 µM, a TGI (NCI-H460 lung) of 5.66 µM and a GI50 (PC-3 prostate) of 2.97 µM. The TGI (PC-3 prostate) was 11.3 µM, the GI50 (SW-620 colon) was 11.9 µM and the TGI (SW-620 colon) was 28.5 µM. It also gave a GI50 (SF-539 CNS) of 13.6 µM, a TGI (SF-539 CNS) of 27.7 µM and a GI50 (T-47D breast) of 20.2 µM. The TGI (T-47D breast) was 59.6 µM, the GI50 (KM12 colon) was 16.3 µM and the TGI (KM12 colon) was 33.9 µM. For the same molecule, the GI50 (SK-MEL-28 melanoma) was 2.6 µM, the TGI (SK-MEL-28 melanoma) was 6 µM and the GI50 (MOLT-4 leukemia) was 2.35 µM. It also gave a TGI (MOLT-4 leukemia) of 5.45 µM, a GI50 (CAKI-1 renal) of 14.6 µM and a TGI (CAKI-1 renal) of 30.2 µM. For the same molecule, the GI50 (COLO 205 colon) was 16.4 µM, the TGI (COLO 205 colon) was 37.2 µM and the GI50 (UACC-62 melanoma) was 4.23 µM. The TGI (UACC-62 melanoma) was 15.7 µM, the GI50 (HT29 colon) was 13.9 µM and the TGI (HT29 colon) was 44.2 µM. For the same molecule, the GI50 (786-0 renal) was 16.1 µM, the TGI (786-0 renal) was 32.4 µM and the GI50 (NCI-H226 lung) was 13.9 µM. The TGI (NCI-H226 lung) was 28.5 µM, the GI50 (K-562 leukemia) was 2.84 µM and the TGI (K-562 leukemia) was 8.66 µM. It also gave a GI50 (A498 renal) of 16.2 µM, a TGI (A498 renal) of 29.9 µM and a GI50 (SF-268 CNS) of 2.45 µM. For the same molecule, the TGI (SF-268 CNS) was 7.28 µM, the GI50 (SR leukemia) was 2.05 µM and the TGI (SR leukemia) was 5.32 µM. For the same molecule, the GI50 (OVCAR-8 ovarian) was 2.44 µM, the TGI (OVCAR-8 ovarian) was 7.33 µM and the GI50 (HOP-92 NSCLC) was 13.9 µM. For the same molecule, the TGI (HOP-92 NSCLC) was 32.3 µM, the GI50 (OVCAR-5 ovarian) was 24.1 µM and the TGI (OVCAR-5 ovarian) was 81.9 µM. It also gave a GI50 (MDA-MB-468 breast) of 1.66 µM, a TGI (MDA-MB-468 breast) of 3.44 µM and a GI50 (HCT-15 colon) of 2.93 µM. It also gave a TGI (HCT-15 colon) of 11 µM, a GI50 (OVCAR-4 ovarian) of 18.5 µM and a TGI (OVCAR-4 ovarian) of 50.1 µM. For the same molecule, the GI50 (BT-549 breast) was 10.2 µM, the TGI (BT-549 breast) was 22.6 µM and the GI50 (UO-31 renal) was 1.79 µM. The TGI (UO-31 renal) was 3.79 µM, the GI50 (CCRF-CEM leukemia) was 1.41 µM and the TGI (CCRF-CEM leukemia) was 4.56 µM. For the same molecule, the GI50 (SNB-75 CNS) was 3.09 µM, the TGI (SNB-75 CNS) was 15.1 µM and the GI50 (DU-145 prostate) was 4.35 µM. The TGI (DU-145 prostate) was 15.1 µM, the GI50 (HS 578T breast) was 12.1 µM and the TGI (HS 578T breast) was 45.5 µM. The GI50 (NCI-H522 lung) was 1.68 µM, the TGI (NCI-H522 lung) was 3.68 µM and the GI50 (HOP-62 NSCLC) was 17 µM. For the same molecule, the TGI (HOP-62 NSCLC) was 35.1 µM, the GI50 (RXF 393 renal) was 8.75 µM and the TGI (RXF 393 renal) was 22.1 µM. For the same molecule, the GI50 (SK-OV-3 ovarian) was 17.3 µM, the TGI (SK-OV-3 ovarian) was 33.3 µM and the GI50 (TK-10 renal) was 17.4 µM. For the same molecule, the TGI (TK-10 renal) was 36.7 µM, the GI50 (U251 CNS) was 2.07 µM and the TGI (U251 CNS) was 5.58 µM. For the same molecule, the GI50 (NCI-H23 lung) was 2.59 µM, the TGI (NCI-H23 lung) was 10 µM and the GI50 (OVCAR-3 ovarian) was 12.2 µM. It also gave a TGI (OVCAR-3 ovarian) of 27.4 µM, a GI50 (MDA-MB-435) of 5.01 µM and a TGI (MDA-MB-435) of 18.3 µM. The GI50 (SF-295 CNS) was 14 µM, the TGI (SF-295 CNS) was 27.9 µM and the GI50 (MCF7 breast) was 11.5 µM. The TGI (MCF7 breast) was 36.4 µM, the GI50 (HL-60(TB) leukemia) was 2.21 µM and the TGI (HL-60(TB) leukemia) was 5.07 µM. It also gave a GI50 (MALME-3M melanoma) of 15.2 µM, a TGI (MALME-3M melanoma) of 29.2 µM and a GI50 (IGROV1 ovarian) of 1.78 µM. The TGI (IGROV1 ovarian) was 3.49 µM, the GI50 (LOX IMVI melanoma) was 1.63 µM and the TGI (LOX IMVI melanoma) was 2.99 µM. For the same molecule, the GI50 (SNB-19 CNS) was 5.21 µM, the TGI (SNB-19 CNS) was 18.1 µM and the GI50 (NCI/ADR-RES ovarian) was 17 µM. The TGI (NCI/ADR-RES ovarian) was 35.1 µM, the GI50 (HCT-116 colon) was 2.36 µM and the TGI (HCT-116 colon) was 6.48 µM. It also gave a GI50 (MDA-MB-231 breast) of 3.9 µM, a TGI (MDA-MB-231 breast) of 14 µM and a GI50 (SK-MEL-5 melanoma) of 2.79 µM. For the same molecule, the TGI (SK-MEL-5 melanoma) was 9.23 µM, the GI50 (ACHN renal) was 11.1 µM and the TGI (ACHN renal) was 26 µM. It also gave a GI50 (EKVX NSCLC) of 12.6 µM, a TGI (EKVX NSCLC) of 28.5 µM and a GI50 (M14 melanoma) of 3.76 µM. For the same molecule, the TGI (M14 melanoma) was 16.2 µM, the GI50 (SK-MEL-2 melanoma) was 13.2 µM and the TGI (SK-MEL-2 melanoma) was 28.2 µM. For the same molecule, the GI50 (HCC-2998 colon) was 1.63 µM, the TGI (HCC-2998 colon) was 3.03 µM and the GI50 (SN12C renal) was 6.67 µM. The TGI (SN12C renal) was 19.8 µM, the GI50 (UACC-257 melanoma) was 3.56 µM and the TGI (UACC-257 melanoma) was 15.7 µM. It also gave a GI50 (RPMI-8226 leukemia) of 14.6 µM, a TGI (RPMI-8226 leukemia) of 41.4 µM and a GI50 (A549 NSCLC) of 22 µM. It also gave a TGI (A549 NSCLC) of 56.9 µM.
